Earlier results, collected in patent US20160089380A1, “PROGESTERONE IMPREGNATED VAGINAL RING/PESSARY” (YALE UNIVERSITY, priority 2014, published 2016).

Experiments:
[1] = system: women; conditions: two studies
[2] = system: women

## CC(=O)[C@H]1CC[C@H]2[C@@H]3CCC4=CC(=O)CC[C@]4(C)[C@H]3CC[C@]12C [progesterone]
[1]; 438 women, 95% CI 0.45 to 0.90
  risk of preterm birth <34 weeks (RR): 0.64
[1]; 1115 women, 95% CI 0.37 to 0.93
  risk of preterm birth at <28 weeks' gestation (RR): 0.59
[2]; 10 studies, 1750 women, 95% CI 0.42 to 0.74
  risk of preterm birth <37 weeks (average RR): 0.55
[2]; five studies, 602 women, 95% CI 0.14 to 0.69
  risk of preterm birth <34 weeks (average RR): 0.31
[2]; one study, 148 women, 95% CI 2.15 to 6.79
  increase in pregnancy prolongation, mean difference (MD): 4.47 weeks
